A word on the MIC: it is the lowest concentration that inhibits growth of the organism.

Assay [1] deals with E. coli containing KPC-2. Description: MIC by broth microdilution, E. coli containing KPC-2 (Ec KPC2 Iso). The settings on record: Escherichia coli, read-out: Ec KPC2 Iso (MIC), E. coli containing KPC-2 (carbapenemase from Klebsiella pneumoniae). The format is cell-based. The gist of the method: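 Host E. coli BW25113 pspB carrying multicopy pBAD18-kan plasmid with constitutive TEM-promoter KPC-2 expression (periplasmic signal sequence); broth microdilution per CLSI in cation-adjusted Mueller-Hinton broth, inoculum ~5×10^5 CFU/mL, compounds twofold serially diluted from DMSO masters (10% DMSO in dilution series added).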
For orientation: In broth dilution the organism is exposed to a series of concentrations in liquid medium.

Assay [2] deals with E. coli strain 25922. Briefly: MIC by broth microdilution, E. coli strain 25922. The following applies: Escherichia coli, 25922, E. coli strain 25922; read-out: Ec 25922 (MIC). The format is cell-based. Put shortly: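 CLSI broth microdilution in cation-adjusted Mueller-Hinton broth, inoculum about 5×10^5 CFU/mL, 10% DMSO from the diluted series, 20 h at 35-37° C. MIC is the lowest concentration preventing visible growth, read by eye and at 600 nm.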

SMILES strings stand for the structures. Converted amounts (≈) assume the structure as drawn.

In the case of `CC(C)(O/N=C(\C(=O)N[C@@H]1C(=O)N(S(=O)(=O)O)[C@@H]1CN1C(=O)CCC1=O)c1csc(N)n1)C(=O)O` [Example 121, 2-(((Z)-(1-(2-aminothiazol-4-yl)-2-(((2R,3S)-2-((2,5-dioxopyrrolidin-1-yl)methyl)-4-oxo-1-sulfoazetidin-3-yl)amino)-2-oxoethylidene)amino)oxy)-2-methylpropanoic acid], the MIC in assay [1] and in assay [2] was 0.25 µg/mL (≈ 0.469 µM) in each case.

Turning to `C[N+](C)(C)CCCNCc1cnn(C[C@@H]2[C@H](NC(=O)/C(=N\OC3(C(=O)O)CC3)c3csc(N)n3)C(=O)N2S(=O)(=O)O)n1` [Example 123, 3-(((2-(((2R,3S)-3-((Z)-2-(2-aminothiazol-4-yl)-2-((1-carboxycyclopropoxy)imino)acetamido)-4-oxo-1-sulfoazetidin-2-yl)methyl)-2H-1,2,3-triazol-4-yl)methyl)amino)-N,N,N-trimethylpropan-1-aminium], the MIC in assay [1] was found to be 0.5 µg/mL; in assay [2], 1 µg/mL.

`N=C(NCc1cnn(C[C@@H]2[C@H](NC(=O)/C(=N\OC3(C(=O)O)CC3)c3csc(N)n3)C(=O)N2S(=O)(=O)O)n1)N[C@H]1C[C@H](N)C1` [Example 125, 1-(((Z)-(2-(((2R,3S)-2-((4-((3-((1 r,3R)-3-aminocyclobutyl)guanidino)methyl)-2H-1,2,3-triazol-2-yl)methyl)-4-oxo-1-sulfoazetidin-3-yl)amino)-1-(2-aminothiazol-4-yl)-2-oxoethylidene)amino)oxy)cyclopropanecarboxylic acid]: the results for the MIC in assay [1] and in assay [2] were 0.5 µg/mL (≈ 0.78 µM) and 0.25 µg/mL (≈ 0.39 µM), respectively.

In the case of `N=C(NCc1cnn(C[C@@H]2[C@H](NC(=O)/C(=N\OC3(C(=O)O)CC3)c3csc(N)n3)C(=O)N2S(=O)(=O)O)n1)NCC1CNC1` [Example 126, 1-(((Z)-(1-(2-aminothiazol-4-yl)-2-(((2R,3S)-2-((4-((3-(azetidin-3-ylmethyl)guanidino)methyl)-2H-1,2,3-triazol-2-yl)methyl)-4-oxo-1-sulfoazetidin-3-yl)amino)-2-oxoethylidene)amino)oxy)cyclopropanecarboxylic acid], the minimum inhibitory concentration (MIC) in assay [1] and in assay [2] was 0.5 µg/mL (≈ 0.78 µM) in each case.

As for `N=C(NCc1cnn(C[C@@H]2[C@H](NC(=O)/C(=N\OC3(C(=O)O)CC3)c3csc(N)n3)C(=O)N2S(=O)(=O)O)n1)N1CC(CN)C1` [Example 127, 1-(((Z)-(2-(((2R,3S)-2-((4-((3-(aminomethyl)azetidine-1-carboximidamido)methyl)-2H-1,2,3-triazol-2-yl)methyl)-4-oxo-1-sulfoazetidin-3-yl)amino)-1-(2-aminothiazol-4-yl)-2-oxoethylidene)amino)oxy)cyclopropanecarboxylic acid], the MIC in assay [1] and in assay [2] was 0.25 µg/mL (≈ 0.39 µM) throughout.

`N=C(NCc1cnn(C[C@@H]2[C@H](NC(=O)/C(=N\OC3(C(=O)O)CC3)c3csc(N)n3)C(=O)N2S(=O)(=O)O)n1)NC1CCNCC1` [Example 128, 1-(((Z)-(1-(2-aminothiazol-4-yl)-2-oxo-2-(((3S,4R)-2-oxo-4-((4-((3-(piperidin-4-yl)guanidino)methyl)-2H-1,2,3-triazol-2-yl)methyl)-1-sulfoazetidin-3-yl)amino)ethylidene)amino)oxy)cyclopropanecarboxylic acid]: the minimal inhibitory concentration (MIC) in assay [1] amounted to 1 µg/mL (≈ 1.53 µM); in assay [2], 0.5 µg/mL (≈ 0.764 µM).

Turning to `N=C(NCCN)NCc1cnn(C[C@@H]2[C@H](NC(=O)/C(=N\OC3(C(=O)O)CC3)c3csc(N)n3)C(=O)N2S(=O)(=O)O)n1` [Example 129, 1-(((Z)-(2-(((2R,3S)-2-((4-((3-(2-aminoethyl)guanidino)methyl)-2H-1,2,3-triazol-2-yl)methyl)-4-oxo-1-sulfoazetidin-3-yl)amino)-1-(2-aminothiazol-4-yl)-2-oxoethylidene)amino)oxy)cyclopropanecarboxylic acid], the MIC is 1 µg/mL (≈ 1.63 µM) in assay [1] and 0.5 µg/mL (≈ 0.814 µM) in assay [2].

Regarding `N=C(N)N(CCCN)Cc1cnn(C[C@@H]2[C@H](NC(=O)/C(=N\OC3(C(=O)O)CC3)c3csc(N)n3)C(=O)N2S(=O)(=O)O)n1` [Example 130, 1-(((Z)-(2-(((2R,3S)-2-((4-((1-(3-aminopropyl)guanidino)methyl)-2H-1,2,3-triazol-2-yl)methyl)-4-oxo-1-sulfoazetidin-3-yl)amino)-1-(2-aminothiazol-4-yl)-2-oxoethylidene)amino)oxy)cyclopropanecarboxylic acid], the MIC in assay [1] stood at 2 µg/mL (≈ 3.18 µM); in assay [2] it was 1 µg/mL (≈ 1.59 µM).

On to `CC(C)(N)CCNCc1cnn(C[C@@H]2[C@H](NC(=O)/C(=N\OC3(C(=O)O)CC3)c3csc(N)n3)C(=O)N2S(=O)(=O)O)n1` [Example 131, 1-(((Z)-(2-(((2R,3S)-2-((4-(((3-amino-3-methylbutyl)amino)methyl)-2H-1,2,3-triazol-2-yl)methyl)-4-oxo-1-sulfoazetidin-3-yl)amino)-1-(2-aminothiazol-4-yl)-2-oxoethylidene)amino)oxy)cyclopropanecarboxylic acid], for which the figures for the MIC in assay [1] and in assay [2] were 2 µg/mL (≈ 3.25 µM) and 1 µg/mL (≈ 1.63 µM), respectively.

On to `CC(C)(CCN)NCc1cnn(C[C@@H]2[C@H](NC(=O)/C(=N\OC3(C(=O)O)CC3)c3csc(N)n3)C(=O)N2S(=O)(=O)O)n1` [Example 132, 1-(((Z)-(2-(((2R,3S)-2-((4-(((4-amino-2-methylbutan-2-yl)amino)methyl)-2H-1,2,3-triazol-2-yl)methyl)-4-oxo-1-sulfoazetidin-3-yl)amino)-1-(2-aminothiazol-4-yl)-2-oxoethylidene)amino)oxy)cyclopropanecarboxylic acid], for which the MIC in assay [1] and in assay [2] was 1 µg/mL (≈ 1.63 µM) throughout.

On to `NCCOC(=O)NCc1cnn(C[C@@H]2[C@H](NC(=O)/C(=N\OC3(C(=O)O)CC3)c3csc(N)n3)C(=O)N2S(=O)(=O)O)n1` [Example 133, 1-(((Z)-(2-(((2R,3S)-2-((4-((((2-aminoethoxy)carbonyl)amino)methyl)-2H-1,2,3-triazol-2-yl)methyl)-4-oxo-1-sulfoazetidin-3-yl)amino)-1-(2-aminothiazol-4-yl)-2-oxoethylidene)amino)oxy)cyclopropanecarboxylic acid], for which the MIC in assay [1] was found to be 0.5 µg/mL (≈ 0.811 µM); in assay [2], 1 µg/mL (≈ 1.62 µM).

In the case of `NCC(=O)NCc1cnn(C[C@@H]2[C@H](NC(=O)/C(=N\OC3(C(=O)O)CC3)c3csc(N)n3)C(=O)N2S(=O)(=O)O)n1` [Example 134, 1-(((Z)-(2-(((2R,3S)-2-((4-((2-aminoacetamido)methyl)-2H-1,2,3-triazol-2-yl)methyl)-4-oxo-1-sulfoazetidin-3-yl)amino)-1-(2-aminothiazol-4-yl)-2-oxoethylidene)amino)oxy)cyclopropanecarboxylic acid], the MIC in assay [1] is 0.25 µg/mL (≈ 0.426 µM); in assay [2], 0.5 µg/mL (≈ 0.852 µM).

Regarding `NCCNC(=O)NCc1cnn(C[C@@H]2[C@H](NC(=O)/C(=N\OC3(C(=O)O)CC3)c3csc(N)n3)C(=O)N2S(=O)(=O)O)n1` [Example 135, 1-(((Z)-(2-(((2R,3S)-2-((4-((3-(2-aminoethyl)ureido)methyl)-2H-1,2,3-triazol-2-yl)methyl)-4-oxo-1-sulfoazetidin-3-yl)amino)-1-(2-aminothiazol-4-yl)-2-oxoethylidene)amino)oxy)cyclopropanecarboxylic acid], the MIC in assay [1] and in assay [2] was 0.5 µg/mL (≈ 0.812 µM) each time.

On to `NCCCNC(=O)NCc1cnn(C[C@@H]2[C@H](NC(=O)/C(=N\OC3(C(=O)O)CC3)c3csc(N)n3)C(=O)N2S(=O)(=O)O)n1` [Example 136, 1-(((Z)-(2-(((2R,3S)-2-((4-((3-(3-aminopropyl)ureido)methyl)-2H-1,2,3-triazol-2-yl)methyl)-4-oxo-1-sulfoazetidin-3-yl)amino)-1-(2-aminothiazol-4-yl)-2-oxoethylidene)amino)oxy)cyclopropanecarboxylic acid], for which the MIC in assay [1] and in assay [2] was 0.5 µg/mL (≈ 0.794 µM) in each case.

Regarding `C[n+]1cccc(CNCc2cnn(C[C@@H]3[C@H](NC(=O)/C(=N\OC4(C(=O)O)CC4)c4csc(N)n4)C(=O)N3S(=O)(=O)O)n2)c1` [Example 137, (2R,3S)-3-((Z)-2-(2-aminothiazol-4-yl)-2-((1-carboxycyclopropoxy)-imino)acetamido)-2-((4-((((1-methylpyridin-1-ium-3-yl)methyl)amino)methyl)-2H-1,2,3-triazol-2-yl)methyl)-4-oxoazetidine-1-sulfonate], the MIC was determined as 0.5 µg/mL in assay [1] and 1 µg/mL in assay [2].

For the compound `Nc1nc(/C(=N/OC2(C(=O)O)CC2)C(=O)N[C@@H]2C(=O)N(S(=O)(=O)O)[C@@H]2Cn2ncc(CN3CCC(N)CC3)n2)cs1` [Example 138, 1-(((Z)-(2-(((2R,3S)-2-((4-((4-aminopiperidin-1-yl)methyl)-2H-1,2,3-triazol-2-yl)methyl)-4-oxo-1-sulfoazetidin-3-yl)amino)-1-(2-aminothiazol-4-yl)-2-oxoethylidene)amino)oxy)cyclopropanecarboxylic acid], the results for the MIC in assay [1] and in assay [2] were 1 µg/mL (≈ 1.63 µM) and 0.5 µg/mL (≈ 0.816 µM), respectively.

Turning to `Nc1nc(/C(=N/OC2(C(=O)O)CC2)C(=O)N[C@@H]2C(=O)N(S(=O)(=O)O)[C@@H]2Cn2ncc(CSC3Cn4cnc[n+]4C3)n2)cs1` (stereo partly drawn) [Example 139, (2R,3S)-3-((Z)-2-(2-aminothiazol-4-yl)-2-((1-carboxycyclopropoxy)imino)acetamido)-2-((4-(((6,7-dihydro-5H-pyrazolo[1,2-a][1,2,4]triazol-4-ium-6-yl)thio)methyl)-2H-1,2,3-triazol-2-yl)methyl)-4-oxoazetidine-1-sulfonate], the results for the MIC in assay [1] and in assay [2] were 4 µg/mL and 1 µg/mL, respectively.
